ChEMBL document CHEMBL1147047, “Design of protein membrane interaction inhibitors by virtual ligand screening, proof of concept with the C2 domain of factor V” (Proc Natl Acad Sci U S A, 2007)
The source made the active and inactive calls. The calls are words filed in the database; no cut-off is given here.

Key:
Coagulation factor V [1] = molecular target: T1, Coagulation factor V (Homo sapiens, UniProt P12259); assay: Inhibition of factor 5a-mediated prothrombin activation in human plasma at 100 uM by prothrombinase assay
T1 sequence (P12259 29-737 limits assumed): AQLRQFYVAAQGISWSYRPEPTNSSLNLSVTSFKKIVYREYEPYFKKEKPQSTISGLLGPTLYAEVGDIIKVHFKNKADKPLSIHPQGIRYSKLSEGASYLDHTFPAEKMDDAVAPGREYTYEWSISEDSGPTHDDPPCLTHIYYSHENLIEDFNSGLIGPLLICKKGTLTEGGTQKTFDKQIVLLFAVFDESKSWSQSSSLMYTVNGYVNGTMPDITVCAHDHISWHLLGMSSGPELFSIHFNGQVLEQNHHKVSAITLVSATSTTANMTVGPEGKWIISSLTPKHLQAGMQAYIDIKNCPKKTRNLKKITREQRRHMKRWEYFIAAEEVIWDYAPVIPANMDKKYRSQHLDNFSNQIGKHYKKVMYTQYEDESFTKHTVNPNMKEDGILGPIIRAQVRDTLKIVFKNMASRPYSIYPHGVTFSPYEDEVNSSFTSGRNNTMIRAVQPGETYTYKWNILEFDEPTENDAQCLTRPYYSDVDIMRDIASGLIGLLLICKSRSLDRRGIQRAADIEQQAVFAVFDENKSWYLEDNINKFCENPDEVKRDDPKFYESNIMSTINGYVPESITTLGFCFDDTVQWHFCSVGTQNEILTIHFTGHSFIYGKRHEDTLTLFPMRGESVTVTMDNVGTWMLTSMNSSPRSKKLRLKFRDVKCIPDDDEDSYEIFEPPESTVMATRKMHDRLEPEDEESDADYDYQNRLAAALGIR
T1 sequence (P12259 1574-2224 limits assumed): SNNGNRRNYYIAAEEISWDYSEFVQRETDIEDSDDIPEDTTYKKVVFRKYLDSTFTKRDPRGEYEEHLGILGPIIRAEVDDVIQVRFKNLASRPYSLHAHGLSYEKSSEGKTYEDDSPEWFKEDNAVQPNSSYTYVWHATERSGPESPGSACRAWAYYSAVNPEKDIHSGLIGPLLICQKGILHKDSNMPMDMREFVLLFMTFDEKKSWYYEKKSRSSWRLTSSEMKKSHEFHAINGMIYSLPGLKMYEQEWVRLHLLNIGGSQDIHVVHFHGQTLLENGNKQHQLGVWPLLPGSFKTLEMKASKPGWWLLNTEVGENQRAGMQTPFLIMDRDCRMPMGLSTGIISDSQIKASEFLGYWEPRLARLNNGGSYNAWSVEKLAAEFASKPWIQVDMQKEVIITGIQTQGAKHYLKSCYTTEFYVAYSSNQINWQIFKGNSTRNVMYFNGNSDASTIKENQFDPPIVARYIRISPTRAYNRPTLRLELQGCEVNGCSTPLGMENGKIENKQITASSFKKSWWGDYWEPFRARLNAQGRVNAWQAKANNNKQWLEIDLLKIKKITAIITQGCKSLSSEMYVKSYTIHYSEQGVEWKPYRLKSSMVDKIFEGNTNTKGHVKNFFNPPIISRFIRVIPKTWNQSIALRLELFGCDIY

[2] = molecular target: Coagulation factor X (Homo sapiens) (UniProt P00742); assay: Inhibition of factor 10a in human plasma; format: cell-free
Chain of Coagulation factor X (Homo sapiens) (P00742 41-179 limits assumed): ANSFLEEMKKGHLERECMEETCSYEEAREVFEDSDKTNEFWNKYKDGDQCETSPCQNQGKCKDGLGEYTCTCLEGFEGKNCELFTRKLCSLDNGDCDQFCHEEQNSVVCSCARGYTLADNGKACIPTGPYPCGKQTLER
Chain of Coagulation factor X (Homo sapiens) (P00742 235-488 limits assumed): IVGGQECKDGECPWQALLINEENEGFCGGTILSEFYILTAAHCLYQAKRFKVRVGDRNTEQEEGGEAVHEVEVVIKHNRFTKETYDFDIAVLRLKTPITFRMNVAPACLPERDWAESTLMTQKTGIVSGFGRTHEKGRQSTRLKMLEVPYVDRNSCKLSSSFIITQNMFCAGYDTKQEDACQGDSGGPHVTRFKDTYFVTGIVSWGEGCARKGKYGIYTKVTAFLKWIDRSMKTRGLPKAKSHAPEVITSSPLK

Coagulation factor V [3] = molecular target: T1, Coagulation factor V; assay: Inhibition of human factor 5a light chain binding to immobilized phospholipid by surface plasmon resonance assay
Coagulation factor V [4] = molecular target: T1, Coagulation factor V; assay: Inhibition of factor 5a-mediated prothrombin activation in human plasma by prothrombinase assay; format: cell-free
Coagulation factor V [5] = molecular target: T1, Coagulation factor V; assay: Inhibition of human recombinant factor 5a C2 domain binding to immobilized phospholipid by surface plasmon resonance assay
[6] = molecular target: Prothrombin (Homo sapiens) (UniProt P00734); assay: Inhibition of calcium-dependent membrane binding activity of prothrombin
[7] = molecular target: Coagulation factor X (Homo sapiens) (UniProt P00742); assay: Inhibition of calcium-dependent membrane binding activity of factor 10a
Coagulation factor VIII = Coagulation factor VIII (Homo sapiens, UniProt P00451); assay: Inhibition of human factor 8 binding to immobilized phospholipid by surface plasmon resonance assay
Chain of Coagulation factor VIII (P00451 20-759 limits assumed): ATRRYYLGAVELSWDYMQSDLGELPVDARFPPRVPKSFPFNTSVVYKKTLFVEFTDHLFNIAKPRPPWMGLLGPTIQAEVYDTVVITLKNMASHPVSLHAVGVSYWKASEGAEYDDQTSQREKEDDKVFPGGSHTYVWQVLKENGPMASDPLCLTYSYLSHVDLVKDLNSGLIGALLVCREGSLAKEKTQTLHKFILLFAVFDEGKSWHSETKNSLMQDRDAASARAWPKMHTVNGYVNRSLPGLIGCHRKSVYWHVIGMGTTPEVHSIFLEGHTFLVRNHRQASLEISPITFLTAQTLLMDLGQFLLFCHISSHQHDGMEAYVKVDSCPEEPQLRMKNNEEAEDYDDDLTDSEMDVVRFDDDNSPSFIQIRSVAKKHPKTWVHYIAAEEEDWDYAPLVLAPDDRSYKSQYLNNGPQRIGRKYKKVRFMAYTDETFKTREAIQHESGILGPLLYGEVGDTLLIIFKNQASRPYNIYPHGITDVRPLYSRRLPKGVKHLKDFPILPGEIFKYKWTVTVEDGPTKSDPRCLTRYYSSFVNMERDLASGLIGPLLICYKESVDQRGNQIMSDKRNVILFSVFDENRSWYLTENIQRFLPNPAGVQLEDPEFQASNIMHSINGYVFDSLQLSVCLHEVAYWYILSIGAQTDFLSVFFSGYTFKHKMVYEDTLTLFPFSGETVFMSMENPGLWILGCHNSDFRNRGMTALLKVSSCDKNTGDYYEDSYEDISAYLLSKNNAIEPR
Chain of Coagulation factor VIII (P00451 1668-2351 limits assumed): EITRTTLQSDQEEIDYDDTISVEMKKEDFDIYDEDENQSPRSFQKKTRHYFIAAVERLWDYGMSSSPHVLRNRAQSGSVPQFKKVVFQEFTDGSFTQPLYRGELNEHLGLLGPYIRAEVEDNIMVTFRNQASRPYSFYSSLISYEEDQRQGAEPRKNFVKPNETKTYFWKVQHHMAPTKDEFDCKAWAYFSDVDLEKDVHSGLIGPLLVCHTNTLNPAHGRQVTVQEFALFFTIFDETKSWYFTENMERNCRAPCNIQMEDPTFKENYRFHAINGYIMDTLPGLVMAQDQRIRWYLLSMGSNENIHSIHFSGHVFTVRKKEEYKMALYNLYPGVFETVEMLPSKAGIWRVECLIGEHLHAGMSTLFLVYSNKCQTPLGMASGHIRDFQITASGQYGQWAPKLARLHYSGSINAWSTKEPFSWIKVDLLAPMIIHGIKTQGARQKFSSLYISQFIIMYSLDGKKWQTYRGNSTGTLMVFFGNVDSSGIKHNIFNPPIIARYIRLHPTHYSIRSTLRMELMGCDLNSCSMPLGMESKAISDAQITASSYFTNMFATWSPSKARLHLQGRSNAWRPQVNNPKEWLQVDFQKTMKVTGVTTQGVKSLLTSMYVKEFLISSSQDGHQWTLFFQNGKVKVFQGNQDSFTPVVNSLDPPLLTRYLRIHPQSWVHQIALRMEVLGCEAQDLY

Coagulation factor V [8] = molecular target: T1, Coagulation factor V; assay: Inhibition of factor 5a-mediated prothrombin activation in human plasma at 50 uM in presence of 40 mg/ml albumin; format: cell-free; parameters: scale not given: the % may be the effect or the level left

SMILES | inhibition (Coagulation factor V [1]) [%] | Activity [2] | IC50 (Coagulation factor V [3]) [µM] | IC50 (Coagulation factor V [4]) [µM] | IC50 (Coagulation factor V [5]) [µM] | Activity [6] | Activity [7] | IC50 (Coagulation factor VIII) [µM] | Activity (Coagulation factor V [8]) [%]
COc1cc([N+](=O)[O-])ccc1-c1ccc(/C=C2\C(=O)NC(=O)N(c3ccc4c(c3)OCO4)C2=O)o1 | > 99 | inactive | 4.8 | 62.9 | 5.53 | inactive | inactive | – | –
CC1=NN(c2ccc(Br)cc2)C(=O)/C1=C/c1ccc(-c2cccc(C(=O)O)c2)o1 | > 99 | inactive | – | 1.81 | – | – | inactive | – | –
Cc1cc(-c2ccc(/C=C3/C(=O)NN(c4cccc(Cl)c4)C3=O)o2)c([N+](=O)[O-])cc1C | > 99 | inactive | 8.55 | 8.95 | 7.4 | inactive | inactive | – | –
N=c1n(CCN2CCCCC2)c2ccccc2n1CC(O)COc1ccc(Cl)cc1Cl (single isomer, unassigned) | > 99 | inactive | 15.7 | 32.4 | 14 | inactive | – | 7.8 | –
O=C(COc1ccc(Cl)cc1Cl)Nc1ccc(C(=O)Nc2ccccc2C(=O)O)cc1 | > 99 | inactive | 14.1 | 40.6 | 16.4 | inactive | inactive | – | –
CC1=NN(c2cccc(C(=O)O)c2)C(=O)/C1=C\c1ccc(-c2ccc([N+](=O)[O-])cc2)o1 | > 99 | inactive | 8.56 | 9.19 | 6.71 | inactive | inactive | – | –
O=C1NC(=O)N(c2ccccc2F)C(=O)/C1=C\c1cc(Cl)ccc1OCc1ccc([N+](=O)[O-])cc1 | > 99 | inactive | 14.1 | 38 | 21.9 | inactive | – | 8.9 | –
CC(C)NC[C@@H](O)Cn1c2c(c3ccccc31)CCc1c-2cnn1-c1ccccc1 | > 99 | inactive | – | 3.8 | – | – | inactive | – | –
CCOc1cc(/C=C2/NC(=O)N(Cc3ccccc3F)C2=O)ccc1OCc1ccc(C(=O)O)cc1 | > 99 | inactive | 2.5 | 18.6 | 3.51 | inactive | inactive | – | 25
